Activity calls are given as the source filed them. The rule behind the calls is not given here.
Legend:
[1] = Metabolic stability in human liver microsome assessed as half life incubated for 120 mins by HPLC-MS/MS; assay type: ADME; details: liver microsomes
[2] = target: T1, Dual specificity tyrosine-phosphorylation-regulated kinase 1A (Homo sapiens, UniProt Q13627); experiment: Inhibition of DYRK1A (unknown origin)
[3] = tested on: Enterovirus A71; experiment: Antiviral activity against Enterovirus A71 TW/2231/98 infected in human RD cells assessed as inhibition of viral plaque formation at 5 uM incubated for 3 to 5 days by crystal violet staining based plaque reduction assay relative to control; assay type: functional; details: Enterovirus A, TW/2231/98, RD, time 3-5 day
[4] = tested on: Enterovirus A71; experiment: Antiviral activity against Enterovirus A71 TW/2231/98 infected in human RD cells assessed as effect on viral RNA level at 10 uM preincubated with cells at 1 hr followed by compound addition and measured at 0 to 3 hrs post infection by time of addition based RT-qPCR analysis; assay type: functional, organism-based
[5] = Selectivity index, ratio of CC50 for human RD cells to EC50 for antiviral activity against enterovirus A71 TW/2231/98 infected in human RD cells; assay type: toxicity, cell-based; details: read-out: Ratio CC50/EC50
[6] = tested on: Enterovirus A71; experiment: Antiviral activity against Enterovirus A71 TW/2231/98 infected in human RD cells assessed as effect on viral titer at 10 uM preincubated with cells at 1 hr followed by compound addition and measured at 0 to 3 hrs post infection by time of addition based plaque assay; assay type: functional, organism-based
[7] = in vitro; details: human, A549 cells
[8] = Metabolic stability in human liver microsome assessed as intrinsic clearance incubated for 120 mins by HPLC-MS/MS; assay type: ADME; details: liver microsomes, read-out: CLH
[9] = tested on: Enterovirus A71; experiment: Antiviral activity against Enterovirus A71 TW/2231/98 infected in human RD cells assessed as reduction in viral titer at 10 uM preincubated with cells at 1 hr followed by compound addition and measured after 9 hrs post infection by time of addition based plaque assay; assay type: functional, organism-based
[10] = Lipophilicity, logD of compound by UPLC-MS analysis; assay type: physicochemical; details: octanol/water
[11] = tested on: Enterovirus A71; experiment: Antiviral activity against Enterovirus A71 TW/2231/98 infected in human RD cells assessed as effect on viral replication incubated for 3 to 5 days by crystal violet staining based plaque reduction assay; assay type: functional, organism-based; details: time 3-5 day
[12] = Cytotoxicity against human A549 cells infected with Human adenovirus; assay type: toxicity, cell-based
[13] = tested on: Enterovirus A71; experiment: Antiviral activity against Enterovirus A71 TW/2231/98 infected in human RD cells assessed as effect on viral protein level at 10 uM preincubated with cells at 1 hr followed by compound addition and measured at 0 to 3 hrs post infection by time of addition based immunoblotting analysis; assay type: functional, organism-based
[14] = tested on: enterovirus D68; experiment: Antiviral activity against Enterovirus D68 2795 assessed as reduction in viral replication; assay type: functional, organism-based; details: Enterovirus D
[15] = target: T1, Dual specificity tyrosine-phosphorylation-regulated kinase 1A; experiment: Inhibition of DYRK1A (unknown origin) at 25 uM incubated for 1 hr relative to control
[16] = tested on: Human rhinovirus sp.; experiment: Antiviral activity against Human rhinovirus 71803 assessed as reduction in viral replication; assay type: functional, organism-based
[17] = tested on: Enterovirus A71; experiment: Antiviral activity against Enterovirus A71 4798 assessed as reduction in viral replication; assay type: functional, organism-based; details: Enterovirus A
[18] = tested on: Influenza A virus; experiment: Antiviral activity against influenza A virus assessed as reduction in viral replication; assay type: functional, organism-based
[19] = tested on: Enterovirus A71; experiment: Antiviral activity against Enterovirus A71 TW/2231/98 infected in human RD cells assessed as reduction in cytopathic effect incubated for 3 days; assay type: functional, organism-based; details: Enterovirus A, TW/2231/98, RD, 72 h
[20] = tested on: Herpes Simplexvirus; experiment: Antiviral activity against Herpes Simplexvirus infected in human A549 cells assessed as inhibition of viral replication at 0.95 uM relative to control; assay type: functional
[21] = tested on: Enterovirus A71; experiment: Antiviral activity against Enterovirus A71 TW/2231/98 infected in human RD cells assessed as inhibition of viral plaque formation at 1.25 uM incubated for 3 to 5 days by crystal violet staining based plaque reduction assay relative to control; assay type: functional; details: Enterovirus A, TW/2231/98, RD, time 3-5 day
[22] = tested on: Enterovirus A71; experiment: Antiviral activity against Enterovirus A71 TW/2231/98 infected in human RD cells assessed as reduction in viral RNA level at 10 uM preincubated with cells at 1 hr followed by compound addition and measured after 9 hrs post infection by time of addition based RT-qPCR analysis; assay type: functional, organism-based
[23] = Stability in human plasma assessed as half life by HPLC-MS/MS; assay type: ADME, cell-free
[24] = tested on: Herpes Simplexvirus; experiment: microbe, parasite or virus in culture; details: A549
[25] = tested on: Enterovirus A71; experiment: Antiviral activity against Enterovirus A71 2231 assessed as reduction in viral replication; assay type: functional, organism-based; details: Enterovirus A
[26] = tested on: enterovirus D68; experiment: Antiviral activity against Enterovirus D68 KY 18953 assessed as reduction in viral replication; assay type: functional, organism-based; details: Enterovirus D
[27] = Cytotoxicity against human RD cells assessed as reduction in cell growth incubated for 3 days by MTT assay; assay type: toxicity, cell-based; details: time 3 day
[28] = Stability in mouse plasma assessed as half life by HPLC-MS/MS; assay type: ADME, cell-free
[29] = tested on: Human adenovirus sp.; experiment: microbe, parasite or virus in culture; details: A549
[30] = tested on: Enterovirus A71; experiment: Antiviral activity against Enterovirus A71 TW/2231/98 infected in human RD cells assessed as reduction in viral protein level at 10 uM preincubated with cells at 1 hr followed by compound addition and measured after 9 hrs post infection by time of addition based immunoblotting analysis; assay type: functional, organism-based
[31] = Cytotoxicity against human A549 cells infected with Herpes Simplexvirus; assay type: toxicity, cell-based; details: A549 cells infected with herpes simplex virus
[32] = Metabolic stability in mouse liver microsome assessed as intrinsic clearance incubated for 120 mins by HPLC-MS/MS; assay type: ADME; details: liver microsomes, read-out: CLH
[33] = tested on: Enterovirus A71; experiment: Antiviral activity against Enterovirus A71 TW/2231/98 infected in human RD cells assessed as inhibition of viral plaque formation at 2.5 uM incubated for 3 to 5 days by crystal violet staining based plaque reduction assay relative to control; assay type: functional; details: Enterovirus A, TW/2231/98, RD, time 3-5 day
[34] = tested on: Coxsackievirus; experiment: Antiviral activity against Coxsackievirus assessed as reduction in viral replication; assay type: functional, organism-based
[35] = Metabolic stability in mouse liver microsome assessed as half life incubated for 120 mins by HPLC-MS/MS; assay type: ADME; details: liver microsomes

## COc1ccc(F)c(C(=O)Nc2cncc(-c3cc(-c4cccnc4)cs3)c2)c1
[1]
  half-life: 55 min
[2]
  IC50: 38 nM
[3]
  inhibition at 5 µM: 80%
[4]
  Activity: inactive
[5]
  selectivity ratio: 2.9
[6]
  Activity: inactive
[7]
  selectivity ratio: > 15
[8]
  microsomal CLint: 27 µL/min/mg
[9]
  Activity: Active
[10]
  logD: 3.44
[11]
  Activity: Active
[12]
  CC50: > 10 µM
[13]
  Activity: inactive
[14]
  EC50: 4.7 µM
[15]
  inhibition: 95%
[16]
  EC50: 4.2 µM
[17]
  EC50: 4.2 µM
[18]
  EC50: > 10 µM
[19]
  EC50: 4.4 µM
[20]
  inhibition at 0.95 µM: 50%
[21]
  inhibition at 1.25 µM: 20%
[22]
  Activity: Active
[23]
  half-life: > 240 min
[24]
  EC50: 1000 nM
[25]
  EC50: 4.4 µM
[26]
  EC50: 3.4 µM
[27]
  CC50 at 72 h: 12.8 µM
[28]
  half-life: > 240 min
[29]
  EC50: > 10 µM
[30]
  Activity: Active
[31]
  CC50: > 15 µM
[32]
  microsomal CLint: 104 µL/min/mg
[33]
  inhibition at 2.5 µM: ~60%
[34]
  EC50: 2800 nM
[35]
  half-life: 14 min

— ChEMBL document CHEMBL6114985, “From Dyrk1A inhibitors to a novel class of antiviral agents: Targeting Enterovirus EV-A71 with 2-aryl-substituted thiophene scaffolds” (Eur J Med Chem, 2025)
